Assay results taken from patent US11732018B2, “Cancer antigen helper peptide” (priority 2009, dated 2023).
Ends that are not written are not given here.

Legend:
[1] = tested on: spleen cells of immunized mice; assay: WT1 peptide-specific cell lines, cell proliferation ability (3H incorporation); format: cell-based, mouse; settings: for proliferation reaction with MHC class I antibody or MHC class II antibody added (3H incorporation): 4th stimulation with peptide-pulsed stimulator, antibody added to the culture solution, FIG. 2A-2C; for proliferation reaction in response to stimulator pulsed with the peptide (3H incorporation): spleen cells of mice immunized with the same peptide, 4th stimulation with irradiated peptide-pulsed spleen cells of non-immunized mice, FIG. 1A-1C
Description: First, the above WT1 peptides were emulsified with a Freund's incomplete adjuvant (Montanide ISA 51), and mice were intradermally inoculated with each WT1 peptide in an amount corresponding to 100 μg/mouse. The immunization was carried out 3 times at intervals of one week, the spleen was removed after 1 week of the final immunization, and spleen cells were prepared. The spleen cells were stimulated 3 times at intervals of 10 days using spleen cells of non-immunized mice, which were pulsed with the same WT1 peptide as that used for immunization of each mouse and irradiated, as a stimulator. Then, the 4th stimulation was carried out using spleen cells of non-immunized mice, which were pulsed with each peptide (WT13 5, WT18 6 or WT12 9 4 peptide) as shown in Table 7 and irradiated, as a stimulator, and proliferation reaction in response to each stimulator was measured by a ^3H incorporation experiment. An OVA (ovalbumin) peptide irrelevant to WT1 peptides was used as a control peptide. As a result, mouse spleen cells immunized with a WT13 5 peptide, a WT18 6 peptide or a WT12 9 4 peptide each responded to the stimulator pulsed with a WT13 5 peptide, a WT18 6 peptide or a WT12 9 4 peptide, and proliferated (FIG. 1A to 1C).
As described above, spleen cells were stimulated in vitro 3 times at intervals of 10 days using spleen cells of non-immunized mice, which were pulsed with each WT1 peptide and irradiated. When the 4th stimulation was then carried out using spleen cells of non-immunized mice, which were pulsed with each peptide described above and irradiated, as a stimulator, and proliferation reaction was measured, an MHC class I antibody (D^b antibody) or an MHC class II antibody (Ab antibody) was added to the culture solution and ^3H incorporation was measured.

[2] = tested on: C1498 cells; assay: Proliferation reaction of WT1 peptide-specific cell lines to C1498 stimulator cells (3H incorporation); format: cell-based, mouse; settings: irradiated C1498 stimulators; FIG. 3
Description: As described above, spleen cells were stimulated in vitro 3 times at intervals of 10 days using spleen cells of non-immunized mice, which were pulsed with each WT1 peptide and irradiated. Then, the proliferation reaction was measured by ^3H incorporation using irradiated C1498 cells not expressing any WT1 protein, C1498 cells pulsed with each of the above WT1 peptides, or C1498 cells expressing a WT1 protein by introduction of a WT1 gene, as a stimulator.

[3] = tested on: RMAS cells pulsed with a WT1126 peptide (MHC class I); assay: WT1-specific immune response in spleen cells of tumor-implanted mice (cytotoxic activity, WT1 tetramer FACS); format: in vivo, mouse
Description: Next, mice were dissected on the 29th day after starting the above experiment, the spleen was excised, and a WT1-specific immune response was analyzed using spleen cells. Briefly, the spleen was excised when mice of the WT13 5 helper peptide (MHC class II)-immunized group and the control group were dissected, and spleen cells were prepared. The spleen cells were stimulated once with a WT11 2 6 peptide (MHC class I), and on the 6th day after the stimulation, cytotoxic activity of the spleen cells was measured using RMAS cells pulsed with a WT11 2 6 peptide (MHC class I) as a target cell. As a control, the cytotoxic activity of the spleen cells was measured using RMAS cells as a target cell. […] The WT1-specific cytotoxic T cells were not induced in one mouse. Also, it was clear that the induction of the WT1-specific cytotoxic T cells was lower as compared with the WT13 5 helper peptide (MHC class II)-immunized group (FIGS. 9 and 10).
Next, specific cytolysis was analyzed in mice of the above WT135 helper peptide (MHC class II)-immunized group and control group. […] Also, the above-prepared spleen cells and a fluorescence-labeled WT1 tetramer (H-2 Db WT1 Tetramer-[…]-PE) were incubated at 4° C. for 20 minutes, washed, then stained with fluorescence-labeled CD3 and CD8 antibodies, again washed, and analyzed by FACS. […]

Row | Sequence | proliferation reaction with MHC class I antibody or MHC class II antibody added (3H incorporation) [1] | proliferation reaction in response to stimulator pulsed with the peptide (3H incorporation) [1] | proliferation reaction in response to C1498 cells pulsed with peptide or expressing a WT1 protein (3H incorporation) [2] | WT1-specific cytotoxic T cells (specific cytolysis; CD3-, CD8- and WT1 tetramer-positive cells) versus control group ([3]; spleen cells of tumor-implanted mice, p<0.05, FIG. 11) | induction of WT1-specific cytotoxic T cells (cytotoxic activity of spleen cells) ([3]; spleen excised on 29th day, stimulated once with WT1126 peptide, measured on 6th day, FIG. 9)
1 | EQCLSAFTLHFSGQFTG (listed as Mus musculus) [WT186] | suppressed by the addition of an MHC class II antibody | proliferated | produced by an intracellular process of an endogenous WT1 protein and displayed on an MHC class II molecule | – | –
2 | WAPVLDFAPPGASAYGSL [WT135] | – | – | – | significantly high | induced in all 4 mice
3 | FRGIQDVRRVSGVAPTLVR (listed as Mus musculus) [WT1294] | suppressed by the addition of an MHC class II antibody | proliferated | produced by an intracellular process of an endogenous WT1 protein and displayed on an MHC class II molecule | – | –
